Results reported in ChEMBL document CHEMBL6182836 (RSC Med Chem, 2025).
The source made the active and inactive calls. The rule behind the calls is not given here.

Assays:
[1] = target: Acetylcholinesterase (Homo sapiens, UniProt P22303); test: Inhibition of AChE (unknown origin)
[2] = target: Cholinesterase (Homo sapiens, UniProt P06276); test: Inhibition of BChE (unknown origin)
[3] = target: Acetylcholinesterase (Electrophorus electricus, UniProt O42275); test: Inhibition of electric eel AChE using acetylthiocholine iodide as substrate measured for 30 mins by Ellman's method
Acetylcholinesterase (Electrophorus electricus, UniProt O42275), sequence (O42275 whole entry): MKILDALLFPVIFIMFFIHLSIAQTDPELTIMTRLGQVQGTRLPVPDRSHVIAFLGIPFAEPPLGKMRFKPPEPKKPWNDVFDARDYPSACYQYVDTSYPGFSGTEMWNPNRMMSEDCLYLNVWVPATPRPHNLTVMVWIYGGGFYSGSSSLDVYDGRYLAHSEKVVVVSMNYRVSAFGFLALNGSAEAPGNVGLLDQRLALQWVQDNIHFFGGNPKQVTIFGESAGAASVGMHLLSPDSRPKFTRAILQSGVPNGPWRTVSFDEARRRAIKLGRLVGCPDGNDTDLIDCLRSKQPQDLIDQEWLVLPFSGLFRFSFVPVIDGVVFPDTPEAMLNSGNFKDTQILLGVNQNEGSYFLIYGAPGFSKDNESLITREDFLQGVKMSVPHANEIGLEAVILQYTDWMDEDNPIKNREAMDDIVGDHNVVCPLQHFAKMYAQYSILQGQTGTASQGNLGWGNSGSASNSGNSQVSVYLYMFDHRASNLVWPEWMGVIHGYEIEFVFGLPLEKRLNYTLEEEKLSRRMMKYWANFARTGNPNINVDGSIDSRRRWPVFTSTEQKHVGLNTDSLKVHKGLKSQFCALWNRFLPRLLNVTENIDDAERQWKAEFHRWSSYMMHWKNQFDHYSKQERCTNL

[4] = Neurotoxicity in Wistar rat primary cortical neurons assessed as cell viability at 0.001 to 100 uM incubated for 24 hrs by LDH assay; format: toxicity, cell-based; conditions: cortical neurone, dose 0.001-100 µM
[5] = Neurotoxicity in Wistar rat primary cortical neurons assessed as inhibition of cell viability incubated for 24 hrs by LDH assay; format: toxicity, cell-based, Cortical neurone; conditions: for IC50 at 24 h: Wistar, primary cortical neurons; for Activity: cortical neurone, 24 h
[6] = test system: Cortical neurone; test: Neuroprotective activity against glutamate-induced excitotoxicity in Wistar rat primary cortical neurons assessed as cell death at 1 uM pretreated with compound for 24 hrs followed by incubation with glutamate for 20 mins by LDH assay relative to control; format: functional; conditions: time 1460 min, 24.33 h
[7] = test system: Cortical neurone; test: Neuroprotective activity against glutamate-induced excitotoxicity in Wistar rat primary cortical neurons assessed as cell death at 1 uM pretreated with glutamate followed by compound addition measured after 24 hrs by LDH assay relative to control; format: functional
[8] = target: Cholinesterase (Equus caballus, UniProt P81908)
Cholinesterase (Equus caballus, UniProt P81908), sequence (P81908 whole entry): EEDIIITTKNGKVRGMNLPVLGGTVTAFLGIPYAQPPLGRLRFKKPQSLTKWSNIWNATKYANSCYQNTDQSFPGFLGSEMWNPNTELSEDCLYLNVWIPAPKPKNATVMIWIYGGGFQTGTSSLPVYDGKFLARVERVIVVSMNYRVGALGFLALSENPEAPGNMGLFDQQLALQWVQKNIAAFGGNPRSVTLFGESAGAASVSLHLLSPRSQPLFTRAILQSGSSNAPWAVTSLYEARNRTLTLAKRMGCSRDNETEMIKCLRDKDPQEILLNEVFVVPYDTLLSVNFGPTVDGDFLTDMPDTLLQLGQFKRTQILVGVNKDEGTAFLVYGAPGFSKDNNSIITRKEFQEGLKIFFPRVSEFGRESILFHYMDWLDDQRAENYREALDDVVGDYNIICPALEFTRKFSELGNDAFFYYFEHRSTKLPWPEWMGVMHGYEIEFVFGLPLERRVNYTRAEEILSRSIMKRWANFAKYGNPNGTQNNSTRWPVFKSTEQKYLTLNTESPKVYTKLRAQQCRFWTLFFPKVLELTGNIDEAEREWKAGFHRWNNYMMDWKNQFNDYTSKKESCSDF
Description: Inhibition of equine serum BuChE using butyrylthiocholine iodide as substrate measured for 30 mins by Ellman's method

[9] = Neuroprotective activity against glutamate-induced excitotoxicity in Wistar rat hippocampal neurons assessed as increase in intracellular ATP level pretreated with glutamate followed by compound addition measured after 24 hrs by CellTiter-Glo assay (reference value: 70 %); format: functional, Hippocampal neuron
[10] = Neuroprotective activity against glutamate-induced excitotoxicity in Wistar rat hippocampal neurons assessed as increase in intracellular ATP level pretreated with compound for 24 hrs followed by incubation with glutamate for 20 mins by CellTiter-Glo assay (reference value: 70 %); format: functional, Hippocampal neuron; conditions: time 1460 min; 24.33 h
[11] = Stability in human plasma assessed as compound remaining at 200 uM incubated for 240 mins by HPLC-UV analysis; format: ADME, cell-free; conditions: read-out: Stability
[12] = Stability in human plasma at pH 7.4 assessed as half life at 200 uM measured up to 240 mins by HPLC-UV analysis; format: ADME, cell-free
[13] = test system: Astrocyte; test: Neuroprotective activity against glutamate-induced excitotoxicity in Wistar rat astrocytes co-cultured with neurons assessed as protection against cell injury at 10 uM pretreated with compound for 24 hrs followed by incubation with glutamate for 20 mins by fluorescence based analysis; format: functional; conditions: time 1460.0 min
[14] = test system: Astrocyte; test: Neuroprotective activity against glutamate-induced excitotoxicity in Wistar rat astrocytes assessed as decrease in LDH release at 10 uM pretreated with glutamate followed by compound addition measured after 24 hrs by spectrophotometric analysis relative to control; format: functional; set-up: scale not given: the % may be the effect or the level left
[15] = Stability in human plasma at 200 uM measured after 240 mins by HPLC-UV analysis; format: ADME, cell-free; conditions: 4 h
[16] = test system: Astrocyte; test: Neuroprotective activity against glutamate-induced excitotoxicity in Wistar rat astrocytes co-cultured with neurons assessed as prevention of disruption of cytoskeleton at 10 uM pretreated with glutamate followed by compound addition measured after 24 hrs by fluorescence based analysis; format: functional, cell-based
[17] = test system: Astrocyte; test: Neuroprotective activity against glutamate-induced excitotoxicity in Wistar rat astrocytes co-cultured with neurons assessed as prevention of retraction of dendritic spines at 10 uM pretreated with glutamate followed by compound addition measured after 24 hrs by fluorescence based analysis; format: functional, cell-based
[18] = test system: Astrocyte; test: Neuroprotective activity against glutamate-induced excitotoxicity in Wistar rat astrocytes co-cultured with neurons assessed as prevention of collapse of dendritic spines at 10 uM pretreated with glutamate followed by compound addition measured after 24 hrs by fluorescence based analysis; format: functional, cell-based
[19] = Cytotoxicity against human HepG2 cells assessed as fold decrease in GI50 incubated for 24 hrs by SRB assay relative to tacrine; format: toxicity, cell-based; conditions: read-out: RatioGI50
[20] = test system: Astrocyte; test: Neuroprotective activity against glutamate-induced excitotoxicity in Wistar rat astrocytes co-cultured with neurons assessed as decrease in LDH release at 10 uM pretreated with compound for 24 hrs followed by glutamate addition for 20 mins by spectrophotometric analysis relative to control; format: functional; set-up: scale not given: the % may be the effect or the level left; conditions: time 1460 min, 24.33 h
[21] = test system: Astrocyte; test: Neuroprotective activity against glutamate-induced excitotoxicity in Wistar rat astrocytes co-cultured with neurons assessed as prevention of disruption of cytoskeleton at 10 uM pretreated with compound for 24 hrs followed by incubation with glutamate for 20 mins by fluorescence based analysis; format: functional, cell-based; conditions: time 1460.0 min
[22] = test system: Astrocyte; test: Neuroprotective activity against glutamate-induced excitotoxicity in Wistar rat astrocytes co-cultured with neurons assessed as prevention of retraction of dendritic spines at 10 uM pretreated with compound for 24 hrs followed by incubation with glutamate for 20 mins by fluorescence based analysis; format: functional, cell-based; conditions: time 1460.0 min
[23] = test system: Astrocyte; test: Neuroprotective activity against glutamate-induced excitotoxicity in Wistar rat astrocytes co-cultured with neurons assessed as prevention of collapse of dendritic spines at 10 uM pretreated with compound for 24 hrs followed by incubation with glutamate for 20 mins by fluorescence based analysis; format: functional, cell-based; conditions: time 1460.0 min
[24] = Stability in human plasma assessed as compound degradation at 200 uM measured after 240 mins by HPLC-UV analysis; format: ADME, cell-free; conditions: read-out: Drug degradation
[25] = test system: HepG2; conditions: human, hepg2, 24 h
Description: Cytotoxicity against human HepG2 cells assessed as total growth inhibition incubated for 24 hrs by SRB assay

[26] = test system: HepG2; conditions: human, hepg2, 24 h; remark: listed apart in the source
Description: Cytotoxicity against human HepG2 cells assessed as cell population mortality incubated for 24 hrs by SRB assay

[27] = mouse, astrocyte, 24 h
Description: Blood-brain barrier transwell (BBB-T) permeability in mouse bEnd.3 cells (luminal side) to C57BL/6 mouse astrocyte (abluminal side) measured after 24 hrs by Transwell assay

[28] = in vitro; conditions: human, HepG2 cells
Description: Cytotoxicity against human HepG2 cells assessed as inhibition of cell growth incubated for 24 hrs by SRB assay

Acetylcholinesterase (Homo sapiens, UniProt P22303), sequence (P22303 whole entry): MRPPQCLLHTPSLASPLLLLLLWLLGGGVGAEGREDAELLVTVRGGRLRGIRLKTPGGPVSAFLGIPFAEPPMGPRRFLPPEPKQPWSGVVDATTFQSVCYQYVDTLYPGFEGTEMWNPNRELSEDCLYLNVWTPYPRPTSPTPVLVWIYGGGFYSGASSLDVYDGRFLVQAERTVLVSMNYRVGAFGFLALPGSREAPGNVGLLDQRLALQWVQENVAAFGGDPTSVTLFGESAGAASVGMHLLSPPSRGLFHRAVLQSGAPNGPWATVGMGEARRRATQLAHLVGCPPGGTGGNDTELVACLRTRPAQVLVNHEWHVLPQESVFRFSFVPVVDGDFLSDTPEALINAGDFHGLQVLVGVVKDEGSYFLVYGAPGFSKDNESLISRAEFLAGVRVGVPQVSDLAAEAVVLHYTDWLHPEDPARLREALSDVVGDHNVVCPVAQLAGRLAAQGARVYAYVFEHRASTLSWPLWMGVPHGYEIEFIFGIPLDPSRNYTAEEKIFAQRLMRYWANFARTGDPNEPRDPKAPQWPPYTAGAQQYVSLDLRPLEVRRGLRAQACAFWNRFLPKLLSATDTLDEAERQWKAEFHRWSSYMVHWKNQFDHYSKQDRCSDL
Cholinesterase (Homo sapiens, UniProt P06276), sequence (P06276 whole entry): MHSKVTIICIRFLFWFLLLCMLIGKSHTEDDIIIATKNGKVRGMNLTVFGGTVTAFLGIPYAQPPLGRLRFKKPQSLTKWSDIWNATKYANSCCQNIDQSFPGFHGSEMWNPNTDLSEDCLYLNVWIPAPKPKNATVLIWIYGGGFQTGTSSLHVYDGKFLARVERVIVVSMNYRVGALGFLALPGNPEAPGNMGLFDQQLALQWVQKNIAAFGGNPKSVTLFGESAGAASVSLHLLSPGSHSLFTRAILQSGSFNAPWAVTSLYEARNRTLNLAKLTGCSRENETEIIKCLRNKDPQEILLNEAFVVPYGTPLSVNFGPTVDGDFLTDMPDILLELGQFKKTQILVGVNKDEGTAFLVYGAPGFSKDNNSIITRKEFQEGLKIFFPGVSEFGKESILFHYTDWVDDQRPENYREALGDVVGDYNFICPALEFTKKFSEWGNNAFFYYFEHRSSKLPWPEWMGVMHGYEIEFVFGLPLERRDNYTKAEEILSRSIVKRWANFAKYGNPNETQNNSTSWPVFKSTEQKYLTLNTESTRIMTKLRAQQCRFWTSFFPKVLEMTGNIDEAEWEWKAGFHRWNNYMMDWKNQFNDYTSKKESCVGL

For `COc1cc2c(cc1OC)CC(CN1CCN(CCCNc3c4c(nc5cc(Cl)ccc35)C[C@H]3C=C(C)C[C@@H]4C3)CC1)C2`, the IC50 [1] was 2.61 nM and the IC50 [2] was 349 nM.

With `O=C(NCCCNc1c2c(nc3ccccc13)CCC2)c1cnc(Cl)c(Cl)c1` the IC50 [1] was 52 nM and the IC50 [2] was 158 nM.

Molecule `Cc1cc(=O)[nH]c2c1C(=O)C(NCNc1c3c(nc4ccccc14)CCCC3)=CC2=O` has an IC50 [1] of 11.1 nM and an IC50 [2] of 180 nM.

In the case of `COc1ccc(OC)c(C(C#N)N2CCN(CC(=O)Nc3c4c(nc5ccccc35)CCC4)CC2)c1` (racemic), the IC50 [3] is reported as “Not_active”, the Activity [4] is reported as “Non-toxic” and the IC50 at 24 h [5] is reported as 427000 nM. For the same molecule, the Activity [5] was “Toxic”, the Activity [6] was 63.52% and the Activity [7] was 30.83%. The IC50 [8] was 1720 nM.

For `COc1ccc(C(C#N)N2CCN(CC(=O)Nc3c4c(nc5ccccc35)CCC4)CC2)c(OC)c1` (racemic), the IC50 [3] was “Not_active”, the Activity [4] was “Non-toxic” and the IC50 at 24 h [5] was 364000 nM. The Activity [5] was “Toxic”, the Activity [6] was 63.15% and the Activity [7] was 44.97%. For the same molecule, the IC50 [8] was 910 nM.

In the case of `COc1cccc(C(C#N)N2CCN(CC(=O)Nc3c4c(nc5ccccc35)CCC4)CC2)c1OC` (racemic), the IC50 ([3]; read-out: IC50) is reported as 440 nM, the Activity [4] is reported as “Non-toxic” and the IC50 at 24 h [5] is reported as 476000 nM. The Activity [5] was “Toxic”, the Activity [6] was 71.05% and the Activity [7] was 47.45%. The Activity [9] was 51.85%, the Activity [10] was 31.11% and the remaining at 4 h, 200 µM [11] was 52.4%. The half-life at 200 µM [12] was 4.8 h, the Activity [13] was “Active” and the Activity [14] was roughly 52%. The Stability [15] was “Stable”, the Activity [16] was “Active” and the Activity [17] was “Active”. For the same molecule, the Activity [18] was “Active”, the selectivity ratio at 24 h [19] was 8 and the Activity [20] was roughly 33%. For the same molecule, the Activity [21] was “Active”, the Activity [22] was “Active” and the Activity [23] was “Active”. The metabolised at 4 h, 200 µM [24] was roughly 48%, the IC50 [8] was 310 nM and the TGI [25] was 188160 nM. For the same molecule, the LC50 [26] was greater than 200000 nM, the permeability [27] was 58% and the GI50 at 24 h [28] was 93600 nM.

In the case of `COc1ccc(C(C#N)N2CCN(CC(=O)Nc3c4c(nc5ccccc35)CCC4)CC2)cc1OC` (racemic), the IC50 [3] is reported as “Not_active”, the Activity [4] is reported as “Non-toxic” and the IC50 at 24 h [5] is reported as 260000 nM. For the same molecule, the Activity [5] was “Toxic”, the Activity [6] was 58.28% and the Activity [7] was 38.98%. The IC50 [8] was 440 nM.

For `COc1ccc(C(C#N)N2CCN(CC(=O)Nc3c4c(nc5ccccc35)CCC4)CC2)cc1` (racemic), the IC50 [3] was “Not_active”, the Activity [4] was “Non-toxic” and the IC50 at 24 h [5] was 436000 nM. For the same molecule, the Activity [5] was “Toxic”, the Activity [6] was 40.71% and the Activity [7] was 28.81%. It also gave an IC50 [8] of 640 nM.

In the case of `CN(C)c1ccc(C(C#N)N2CCN(CC(=O)Nc3c4c(nc5ccccc35)CCC4)CC2)cc1` (racemic), the IC50 ([3]; read-out: IC50) is reported as 480 nM, the Activity [4] is reported as “Non-toxic” and the IC50 at 24 h [5] is reported as 218000 nM. For the same molecule, the Activity [5] was “Toxic”, the Activity [6] was 34.63% and the Activity [7] was 22.03%. The IC50 [8] was 410 nM.

For `COc1cc(OC)cc(C(C#N)N2CCN(CC(=O)Nc3c4c(nc5ccccc35)CCC4)CC2)c1` (racemic), the IC50 [3] was “Not_active”, the Activity [4] was “Non-toxic” and the IC50 at 24 h [5] was 298000 nM. For the same molecule, the Activity [5] was “Toxic”, the Activity [6] was 62.67% and the Activity [7] was 35.59%. The IC50 [8] was 690 nM.

`CC12CC3CC(C)(C1)CC(N)(C3)C2` [MEMANTINE] gave an IC50 at 24 h [5] of 272000 nM, an Activity [6] of 36.84% and an Activity [7] of 46.61%. It also gave an Activity [9] of 44.44% and an Activity [10] of 10.37%.
